Where two headings read alike, the source gives them in different places.
How the values were obtained:
[1] = system: HCV replicon cells; test: HCV replicon FRET assay; type: cell-based
Excerpt: FRET Assay Preparation. To perform the HCV FRET screening assay, 96-well cell culture plates were used. The FRET peptide (Anaspec, Inc.) (Taliani et al., Anal. Biochem. 1996, 240, 60-67) contains a fluorescence donor, EDANS, near one end of the peptide and an acceptor, DABCYL, near the other end. The fluorescence of the peptide is quenched by […] resonance energy transfer (RET) between the donor and the acceptor, but as the NS3 protease cleaves the peptide the products are released from RET quenching and the fluorescence of the donor becomes apparent. The assay reagent was made as follows: 5× cell Luciferase cell culture lysis reagent from Promega (#E153A) diluted to 1× with dH2O, NaCl added to 150 mM final, the FRET peptide diluted to 20 μM final from a 2 mM stock.
To prepare plates, HCV replicon cells, with or without a Renilla luciferase reporter gene, were trypsinized and placed into each well of a 96-well plate with titrated test compounds added in columns 3 through 12; columns 1 and 2 contained a control compound (HCV protease inhibitor), and the bottom row contained cells without compound. The plates were then placed in a CO2 incubator at 37° C.
Assays. Subsequent to addition of the test compounds described above (FRET Assay Preparation), at various times the plate was removed and Alamar blue solution (Trek Diagnostics, #00-100) was added per well as a measure of cellular toxicity. After reading in a Cytoflour 4000 instrument (PE Biosystems), plates were rinsed with PBS and then used for FRET assay by the addition of 30 ul of the FRET peptide assay reagent described above (FRET Assay Preparation) per well. The plate was then placed into the Cytoflour 4000 instrument which had been set to 340 excite/490 emission, automatic mode for 20 cycles and the plate read in a kinetic mode. Typically, the signal to noise using an endpoint analysis after the reads was at least three-fold. Alternatively, after Alamar blue reading, plates were rinsed with PBS, 50 ul of DMEM (high glucose) without phenol red was added and plates were then used for luciferase assay using the Promega Dual-Glo Luciferase Assay System.
Compound analysis was determined by quantification of the relative HCV replicon inhibition and the relative cytotoxicity values. To calculate cytoxicity values, the average Alamar Blue fluorescence signals from the control wells were set as 100% non-toxic. The individual signals in each of the compound test wells were then divided by the average control signal and multiplied by 100% to determine […]. To calculate the HCV replicon inhibition values, an average background value was obtained from the two wells containing the highest amount of HCV protease inhibitor at the end of the assay period. These numbers were similar to those obtained from naïve Huh-7 cells.
The background numbers were then subtracted from the average signal obtained from the control wells and this number was used as 100% activity. The individual signals in each of the compound test wells were then divided by the averaged control values after background subtraction and multiplied by 100% to determine percent activity. EC50 values for a protease inhibitor titration were calculated as the concentration which caused a 50% reduction in FRET or luciferase activity. The two numbers generated for the compound plate, percent cytoxicity and percent activity were used to determine compounds of interest for further analysis.

[2] = biological target: T1, HCV NS5B RdRp genotype 1b (Hepatitis C virus genotype 1b, UniProt Q9WMX2); test: Modified HCV NS5B RdRp enzyme assay (preincubation protocol); type: biochemical
T1 construct: The protein was expressed with an 18 amino acid C-terminal truncation to enhance the solubility; made in house; host or cells: E. coli BL21 (DE3)
T1 sequence (Q9WMX2 2420-2992): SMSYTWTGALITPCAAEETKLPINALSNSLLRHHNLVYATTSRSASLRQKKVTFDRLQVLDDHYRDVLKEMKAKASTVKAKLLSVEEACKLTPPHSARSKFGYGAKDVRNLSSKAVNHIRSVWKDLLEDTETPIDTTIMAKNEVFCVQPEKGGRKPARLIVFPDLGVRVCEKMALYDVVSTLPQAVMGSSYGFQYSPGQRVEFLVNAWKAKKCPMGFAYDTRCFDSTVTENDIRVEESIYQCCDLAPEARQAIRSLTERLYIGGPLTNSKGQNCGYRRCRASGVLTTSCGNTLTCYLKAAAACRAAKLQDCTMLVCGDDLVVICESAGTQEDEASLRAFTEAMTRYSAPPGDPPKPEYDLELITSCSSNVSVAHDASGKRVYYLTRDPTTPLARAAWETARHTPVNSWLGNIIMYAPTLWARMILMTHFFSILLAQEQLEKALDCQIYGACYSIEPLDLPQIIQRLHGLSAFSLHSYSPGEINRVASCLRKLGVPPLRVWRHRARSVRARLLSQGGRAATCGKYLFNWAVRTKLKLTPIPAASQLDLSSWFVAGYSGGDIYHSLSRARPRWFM
Experimental: HCV NS5B RdRp cloning, expression, and purification. The cDNA encoding the NS5B protein of HCV, genotype 1b, was cloned into the pET21a expression vector. The protein was expressed with an 18 amino acid C-terminal truncation to enhance the solubility. The E. coli competent cell line BL21 (DE3) was used for expression of the protein. Cultures were grown at 37° C. for ˜4 hours until the cultures reached an optical density of 2.0 at 600 nm. The cultures were cooled to 20° C. and induced with 1 mM IPTG. Fresh ampicillin was added to a final concentration of 50 μg/ml and the cells were grown overnight at 20° C.
Cell pellets (3 L) were lysed for purification to yield 15-24 mgs of purified NS5B. The lysis buffer consisted of 20 mM Tris-HCl, pH 7.4, 500 mM NaCl, 0.5% triton X-100, 1 mM DTT, 1 mM EDTA, 20% glycerol, 0.5 mg/ml lysozyme, 10 mM MgCl2, 15 ug/ml deoxyribonuclease I, and Complete TM protease inhibitor tablets (Roche). After addition of the lysis buffer, frozen cell pellets were resuspended using a tissue homogenizer. To reduce the viscosity of the sample, aliquots of the lysate were sonicated on ice using a microtip attached to a Branson sonicator. The sonicated lysate was centrifuged at 100,000×g for 1 hr at 4° C. and filtered through a 0.2 μm filter unit (Corning).
The protein was purified using three sequential chromatography steps: Heparin sepharose CL-6B, polyU sepharose 4B, and Hitrap SP sepharose (Pharmacia). The chromatography buffers were identical to the lysis buffer but contained no lysozyme, deoxyribonuclease I, MgCl2 or protease inhibitor and the NaCl concentration of the buffer was adjusted according to the requirements for charging the protein onto the column. Each column was eluted with a NaCl gradient which varied in length from 5-50 column volumes depending on the column type. After the final chromatography step, the resulting purity of the enzyme is >90% based on SDS-PAGE analysis. The enzyme was aliquoted and stored at −80° C.
Standard HCV NS5B RdRp enzyme assay. HCV RdRp genotype 1b assays were run in a final volume of 60 μl in 96 well plates (Costar 3912). The assay buffer is composed of 20 mM Hepes, pH 7.5, 2.5 mM KCl, 2.5 mM MgCl2, 1 mM DTT, 1.6 U RNAse inhibitor (Promega N2515), 0.1 mg/ml BSA (Promega R3961), and 2% glycerol. All compounds were serially diluted (3-fold) in DMSO and diluted further in water such that the final concentration of DMSO in the assay was 2%. HCV RdRp genotype 1b enzyme was used at a final concentration of 28 nM. A polyA template was used at 6 nM, and a biotinylated oligo-dT 12 primer was used at 180 nM final concentration. Template was obtained commercially (Amersham 27-4110). Biotinylated primer was prepared by Sigma Genosys. 3H-UTP was used at 0.6 μCi (0.29 μM total UTP). Reactions were initiated by the addition of enzyme, incubated at 30° C. for 60 min, and stopped by adding 25 μl of 50 mM EDTA containing SPA beads (4 μg/μl, Amersham RPNQ 0007). Plates were read on a Packard Top Count NXT after >1 hr incubation at room temperature.
Modified HCV NS5B RdRp enzyme assay. A modified enzyme assay was performed essentially as described for the standard enzyme assay except for the following: The biotinylated oligo dT12 primer was precaptured on streptavidin-coated SPA beads by mixing primer and beads in assay buffer and incubating at room temperature for one hour. Unbound primer was removed after centrifugation. The primer-bound beads were resuspended in 20 mM Hepes buffer, pH 7.5 and used in the assay at final concentrations of 20 nM primer and 0.67 μg/μl beads. Order of addition in the assay: enzyme (14 nM) was added to diluted compound followed by the addition of a mixture of template (0.2 nM), 3H-UTP (0.6 μCi, 0.29 μM), and primer-bound beads, to initiate the reaction; concentrations given are final. Reactions were allowed to proceed for 4 hours at 30° C.
IC50 values for compounds were determined using seven different [I]. […]

Row | Compound | EC50 ([1]; Hepatitis C virus) [µM] | IC50 [2] [µM] | EC50 [1] [µM]
1 | COc1ccc2c(c1)C=C(C(=O)N1CC3CCC(C1)N3C(=O)OC(C)(C)C)Cn1c-2c(C2CCCCC2)c2ccc(C(=O)NS(=O)(=O)N(C)C)cc21 | 0.001 to 0.5 | 0.001 to 0.5 | 
2 | COc1ccc2c(c1)C=C(C(=O)N1CC3CCC(C1)N3)Cn1c-2c(C2CCCCC2)c2ccc(C(=O)NS(=O)(=O)N(C)C)cc21 | 0.001 to 0.5 | 0.001 to 0.5 | 
3 | COc1ccc2c(c1)CC(C(=O)N1C3CCC1CN(C)C3)Cn1c-2c(C2CCCCC2)c2ccc(C(=O)NS(=O)(=O)N(C)C)cc21 (stereo not drawn) | 0.001 to 0.5 | 0.001 to 0.5 | 
4 | COc1ccc2c(c1)C=C(C(=O)N1CC3CCC(C1)N3C)Cn1c-2c(C2CCCCC2)c2ccc(C(=O)NS(=O)(=O)N(C)C)cc21 | 0.001 to 0.5 | 0.001 to 0.5 | 
5 | COc1cccc2c1C=C(C(=O)N1C3CCC1CN(C)C3)Cn1c-2c(C2CCCCC2)c2ccc(C(=O)NS(=O)(=O)N(C)C)cc21 | 0.001 to 0.5 | 0.001 to 0.5 | 
6 | COc1cccc2c1C=C(C(=O)N1CC3CCC(C1)N3C(=O)OC(C)(C)C)Cn1c-2c(C2CCCCC2)c2ccc(C(=O)NS(=O)(=O)N(C)C)cc21 | 0.001 to 0.5 | 0.001 to 0.5 | 
7 | COc1cccc2c1C=C(C(=O)N1CC3CCC(C1)N3)Cn1c-2c(C2CCCCC2)c2ccc(C(=O)NS(=O)(=O)N(C)C)cc21 | 0.001 to 0.5 | 0.001 to 0.5 | 
8 | COc1cccc2c1C=C(C(=O)N1CC3CCC(C1)N3C)Cn1c-2c(C2CCCCC2)c2ccc(C(=O)NS(=O)(=O)N(C)C)cc21 | 0.001 to 0.5 | 0.001 to 0.5 | 
9 | COc1ccc2c(c1)C=C(C(=O)N1C3CCC1CN(C1CC1)C3)Cn1c-2c(C2CCCCC2)c2ccc(C(=O)NS(=O)(=O)N(C)C)cc21 | 0.001 to 0.5 | < 0.02 | 
10 | COC(=O)c1ccc2c(C3CCCCC3)c3n(c2c1)CC(C(=O)N1C2CCC1CN(C)C2)=Cc1c(OC(F)(F)F)cccc1-3 | > 0.5 | > 0.5 | 
11 | CN1CC2CCC(C1)N2C(=O)C1=Cc2c(OC(C)(F)F)cccc2-c2c(C3CCCCC3)c3ccc(C(=O)NS(=O)(=O)N(C)C)cc3n2C1 | > 0.5 | > 0.5 | 
12 | COc1ccc2c(c1)C=C(C(=O)N1C3CCC1CN(C)C3)Cn1c-2c(C2CCCCC2)c2ccc(C(=O)NS(=O)(=O)C3CC3)cc21 | 0.001 to 0.5 | 0.001 to 0.5 | 
13 | COC(=O)c1ccc2c(C3CCCCC3)c3n(c2c1)CC(C(=O)N1C2CCC1CN(C)C2)=Cc1cc(OC)ccc1-3 | > 0.5 | > 0.5 | 
14 | COc1ccc2c(c1)C=C(C(=O)N1C3CCC1CN(C)C3)Cn1c-2c(C2CCCCC2)c2ccc(C(=O)O)cc21 | 0.001 to 0.5 | 0.001 to 0.5 | 
15 | COc1ccc2c(c1)C=C(C(=O)N1C3CCC1CN(C)C3)Cn1c-2c(C2CCCCC2)c2ccc(C(=O)NS(=O)(=O)C(C)C)cc21 | 0.001 to 0.5 | 0.001 to 0.5 | 
16 | CCC(C)S(=O)(=O)NC(=O)c1ccc2c(C3CCCCC3)c3n(c2c1)CC(C(=O)N1C2CCC1CN(C)C2)=Cc1cc(OC)ccc1-3 (stereo not drawn) | 0.001 to 0.5 | 0.001 to 0.5 | 
17 | COc1ccc2c(c1)C=C(C(=O)N1C3CCC1CN(C)C3)Cn1c-2c(C2CCCCC2)c2ccc(C(=O)NS(=O)(=O)N(C)C)cc21 [drawing 16] |  | 0.001 to 0.5 | 0.001 to 0.5
18 | COc1ccc2c(c1)C=C(C(=O)N1C3CCC1CN(C)C3)Cn1c-2c(C2CCCCC2)c2ccc(C(=O)NS(=O)(=O)N(C)C)cc21 [drawing 25] | 0.001 to 0.5 | 0.001 to 0.5 | 
